Reference: patent publication US10662451B2, “Microorganisms and methods for the coproduction 1,4-butanediol and gamma-butyrolactone” (priority 2009, dated 2020)

Legend:
[1] = system: aminotransferase from Leishmania mexicana; conditions: activity considered 100% on tyrosine; cited from earlier work
[2] = system: branched chain alpha-ketoacid decarboxylase (BCKA); conditions: cited from earlier work
[3] = molecular target: T1, adh1 from Geobacillus thermoglucosidasius M10EXG (Geobacillus sp. M10EXG, UniProt Q6RS93); test: ADH enzyme assay of E. coli expressed Adh1 enzyme (084); format: biochemical; conditions: reduction by Adh1 enzyme (084) expressed in E. coli
T1 sequence (Q6RS93 1-340): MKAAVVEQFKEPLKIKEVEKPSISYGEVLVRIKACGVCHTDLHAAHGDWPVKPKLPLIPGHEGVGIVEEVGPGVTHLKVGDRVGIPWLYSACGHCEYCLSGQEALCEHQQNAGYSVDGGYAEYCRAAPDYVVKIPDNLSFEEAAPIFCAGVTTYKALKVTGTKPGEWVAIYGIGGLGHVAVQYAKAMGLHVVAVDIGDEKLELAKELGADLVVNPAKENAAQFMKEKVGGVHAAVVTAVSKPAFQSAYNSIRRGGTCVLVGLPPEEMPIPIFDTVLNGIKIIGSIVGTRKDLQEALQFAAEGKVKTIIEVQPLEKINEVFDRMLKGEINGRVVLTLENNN
Method: Alcohol (ADH) and aldehyde (ALD) dehydrogenase was assayed in the reductive direction using a procedure adapted from several literature sources (Durre et al., FEMS Microbiol. Rev. 17:251-262 (1995); Palosaari and Rogers, J. Bacteriol. 170:2971-2976 (1988) and Welch et al., Arch. Biochem. Biophys. 273:309-318 (1989)). The oxidation of NADH is followed by reading absorbance at 340 nm every four seconds for a total of 240 seconds at room temperature. The reductive assays were performed in 100 mM MOPS (adjusted to pH 7.5 with KOH), 0.4 mM NADH, and from 1 to 50 μl of cell extract. The reaction is started by adding the following reagents: 100 μl of 100 mM acetaldehyde or butyraldehyde for ADH, or 100 μl of 1 mM acetyl-CoA or butyryl-CoA for ALD. The Spectrophotometer is quickly blanked and then the kinetic read is started. The resulting slope of the reduction in absorbance at 340 nm per minute, along with the molar extinction coefficient of NAD(P)H at 340 nM (6000) and the protein concentration of the extract, can be used to determine the specific activity.
Multiple alcohol dehydrogenases were screened for their ability to catalyze the reduction of 4-hydroxybutanal to 14-BDO.
The Adh1 enzyme (084) expressed very well from its native gene in E. coli (see FIG. 8A).

Compound | aminotransferase activity [1] [%] | further results
CSCC[C@H](N)C(=O)O [methionine] | 25 | –
N[C@@H](Cc1ccc(O)cc1)C(=O)O [tyrosine] | 100 | –
O=C(O)CCC(=O)C(=O)O [2-Oxoglutarate] | – | decarboxylation activity relative to other branched-chain substrates [2]: 5%
O=CCCCO [Gene 4HB-aldehyde, 4-hydroxybutyraldehyde] | – | Km [3]: 4000 µM
CC(C)C[C@H](N)C(=O)O [leucine] | 25 | –
N[C@@H](Cc1ccccc1)C(=O)O [phenylalanine] | 90 | –
CCCC=O [butyraldehyde] | – | Km [3]: 1200 µM
N[C@@H](Cc1c[nH]c2ccccc12)C(=O)O [tryptophan] | 85 | –
